The source of these data is patent US10508102B2, “Inhibitors of cellular necrosis and related methods” (President and Fellows of Harvard College, priority 2014, dated 2019).

Experiment [1] concerns human FADD-deficient Jurkat T cells. Description: Cellular necrosis inhibition, FADD-deficient Jurkat T cells challenged with TNF-alpha (CellTiter-Glo viability). The conditions noted are these: 30 hours, ATP-based cell viability. On the procedure: FADD−/− Jurkat cells (Juo P, et al. Cell Growth Differ. 1999, 10(12):797-804) were seeded at the density of 5*10^5 cells/mL into 96 well white plates (Costar) at 100 μL/well. […] Cells were treated in duplicate with various concentrations of test compounds in the presence or absence of 10 ng/ml human TNF-alpha. (Cell Sciences).
After 30 hours, viability of the cells was determined using luminescent ATP-based cell viability assay (CellTiter-Glo, Promega). Percentage of protection by the compound was calculated as a ratio of the cps (counts per second) value in the well treated with the test compound and TNF-alpha. to the cps value in the well treated with the compound alone. Assays were repeated twice, and the average EC50 value over both assays was calculated.
Exemplary compounds of structure (II) were screened for anti-necrotic activity according to the general procedures of Example 7.

Experiment [2] addresses GST-human RIP1 kinase domain (amino acids 1-327) (Homo sapiens (Human), UniProt Q13546). In words: RIP1 kinase ADP-Glo assay. (In general: In ADP-Glo the light output rises with the ADP produced.)
Protocol: RIP1 kinase assays were performed using ADP-Glo assay (Promega) according to manufacturer's protocol. […] Reactions were performed for 4 hr at room temperature and stopped by incubation with ADP-Glo reagent for 40 min at room temperature. Luminescent signal was developed by incubation with Kinase Detection reagent for 30 min at room temperature. Signal was determined using Victor3V platereader (Perkin Elmer). Non-linear regression to calculate EC50 values was performed using GraphPad Prism software package.
The mark [3] stands for this setting: 10 ng/ml human TNF-alpha, read-out: EC50 (nM) TNFα.
The mark [4] stands for this setting: 10 ng/ml human TNF-alpha plus Smac mimetic (10 nM SM-164), read-out: EC50 (nM) TNFα + Smac.

Structures are written as SMILES. Read-outs that look alike come from different tables or passages of the source.

Chain of GST-human RIP1 kinase domain (amino acids 1-327) (Q13546 1-327): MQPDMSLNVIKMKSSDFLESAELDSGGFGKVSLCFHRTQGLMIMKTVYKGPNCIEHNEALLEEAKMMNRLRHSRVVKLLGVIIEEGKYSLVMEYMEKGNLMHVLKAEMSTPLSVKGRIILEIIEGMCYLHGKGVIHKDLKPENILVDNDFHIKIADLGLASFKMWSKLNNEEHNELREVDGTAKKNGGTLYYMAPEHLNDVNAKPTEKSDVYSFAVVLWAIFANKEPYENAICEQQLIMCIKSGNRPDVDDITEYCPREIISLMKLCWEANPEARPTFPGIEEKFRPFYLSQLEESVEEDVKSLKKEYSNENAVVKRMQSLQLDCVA

For orientation: EC50 means the concentration needed to bring the measured effect to its halfway point. Turning to `CN1C(=O)N[C@H](Cc2c[nH]c3c(Cl)c(Cl)ccc23)C1=O` [B, reference compound], the EC50 in experiment [1] (setting [3]) is greater than 100000 nM.

Regarding `CN1C(=O)N[C@H](Cc2c[nH]c3c(Cl)c(F)ccc23)C1=O` [Compound (Ia), (R)-5-((7-chloro-6-fluoro-1H-indol-3-yl)methyl)-3-methylimidazolidine-2,4-dione], the EC50 in experiment [2] was found to be 93.7 nM; in experiment [1] (setting [4]) it was 86.6 nM.

`CN1C(=O)N[C@H](Cc2c[nH]c3c(Cl)cccc23)C1=O` [Compound A, reference compound]: the concentration for a half-maximal effect (EC50) in experiment [1] (setting [4]) came out at 324 nM; in experiment [1] (setting [3]), 90.5 nM.

As for `O=C1NC(Cc2c[nH]c3ccccc23)C(=O)N1Cc1ccc(Cl)cc1` (centres unmarked) [Compound C1, reference compound], the concentration giving a half-maximal response (EC50) in experiment [1] (setting [3]) came out at 343 nM.

With `CN1C(=O)N[C@H](Cc2c[nH]c3c(Cl)ccc(F)c23)C1=O` [Compound E, reference compound], the half-maximal effective concentration (EC50) amounted to 8330 nM in experiment [1] (setting [4]) and 2330 nM in experiment [1] (setting [3]).

For the compound `CN1C(=O)N[C@H](Cc2c[nH]c3c(Cl)cc(F)cc23)C1=O` [Compound F, reference compound], the EC50 in experiment [1] (setting [4]) was greater than 100000 nM; in experiment [1] (setting [3]), 10500 nM.

Take `O=C1NC(Cc2c[nH]c3c(Cl)cccc23)C(=O)N1Cc1ccccc1F` (centres unmarked) [II-1, 5-((7-chloro-1H-indol-3-yl)methyl)-3-(2-fluorobenzyl)imidazolidine-2,4-dione]: the EC50 was found to be 11000 nM in experiment [1] (setting [4]) and 159 nM in experiment [1] (setting [3]).

With `O=C1NC(Cc2c[nH]c3c(Cl)cccc23)C(=O)N1Cc1cccc(F)c1` (centres unmarked) [II-2, 5-((7-chloro-1H-indol-3-yl)methyl)-3-(3-fluorobenzyl)imidazolidine-2,4-dione], the 50% effective concentration (EC50) was less than 100 nM in experiment [2], 895 nM in experiment [1] (setting [4]) and 41 nM in experiment [1] (setting [3]).

Turning to `O=C1NC(Cc2c[nH]c3c(Cl)cccc23)C(=O)N1Cc1ccc(F)c(F)c1` (centres unmarked) [II-3, 5-((7-chloro-1H-indol-3-yl)methyl)-3-(3,4-difluorobenzyl)imidazolidine-2,4-dione], the EC50 was less than 100 nM in experiment [2], 426 nM in experiment [1] (setting [4]) and 89 nM in experiment [1] (setting [3]).

In the case of `O=C1NC(Cc2c[nH]c3c(Cl)cccc23)C(=O)N1Cc1ccc(F)cc1` (centres unmarked) [II-4, 5-((7-chloro-1H-indol-3-yl)methyl)-3-(4-fluorobenzyl)imidazolidine-2,4-dione], the results for the half-maximal effective concentration (EC50) in experiment [1] (setting [4]) and in experiment [1] (setting [3]) were 867 nM and 220 nM, respectively.

With `O=C1NC(Cc2c[nH]c3c(Cl)c(F)ccc23)C(=O)N1Cc1ccccc1F` (centres unmarked) [II-5, 5-((7-chloro-6-fluoro-1H-indol-3-yl)methyl)-3-(2-fluorobenzyl)imidazolidine-2,4-dione], the EC50 in experiment [1] (setting [4]) worked out at 892 nM; in experiment [1] (setting [3]) it was 235 nM.

Consider `O=C1NC(Cc2c[nH]c3c(Cl)c(F)ccc23)C(=O)N1Cc1cccc(F)c1F` (centres unmarked) [II-6, 5-((7-chloro-6-fluoro-1H-indol-3-yl)methyl)-3-(2,3-difluorobenzyl)imidazolidine-2,4-dione], for which the EC50 in experiment [1] (setting [4]) came to 822 nM; in experiment [1] (setting [3]), 50 nM.

On to `O=C1NC(Cc2c[nH]c3c(Cl)c(F)ccc23)C(=O)N1Cc1ccc(F)c(F)c1` (centres unmarked) [II-7, 5-((7-chloro-6-fluoro-1H-indol-3-yl)methyl)-3-(3,4-difluorobenzyl)imidazolidine-2,4-dione], for which the concentration for a half-maximal effect (EC50) in experiment [1] (setting [4]) was found to be 722 nM; in experiment [1] (setting [3]), 121 nM.
